# Entries after “also recorded” stand apart in the source; their conditions may differ. Like-named read-outs stand apart in the source and are kept apart here.
# Key:
# influenza neuraminidase = conditions: literature; FANA compared with DANA; cited from earlier work
# [1] = target: T1, Salmonella typhimurium sialidase (Salmonella typhimurium, UniProt P29768); test: biochemical
# [2] = target: T2, Vibrio cholerae sialidase (Vibrio cholerae serotype O1, UniProt P0C6E9); test: biochemical
# [3] = target: T1, Salmonella typhimurium sialidase; conditions: for competitive inhibitor potency (in words): summary statement
# bacterial sialidases = format: biochemical; conditions: read-out: Ki (range)
# [4] = target: T2, Vibrio cholerae sialidase
# [5] = system: Clostridium perfringens sialidase; format: biochemical; conditions: for binding/inhibition of 5a compared with 5b (in words): 5a vs 5b; for affinity relative to substrate (in words): Ki vs substrate Km; for Ki: Table 1, competitive inhibition fit; for competitive inhibitor potency (in words): summary statement
# [6] = carboxyl group adjacent to the anomeric carbon; cited from earlier work
# [7] = system: CC(=O)NC1C(O)CC(Oc2ccc([N+](=O)[O-])cc2)(C(=O)O)OC1C(O)C(O)CO; test: purified protein, by the assay type; conditions: pH 5.5; 30.0 °C
# T2 sequence (P0C6E9 25-781): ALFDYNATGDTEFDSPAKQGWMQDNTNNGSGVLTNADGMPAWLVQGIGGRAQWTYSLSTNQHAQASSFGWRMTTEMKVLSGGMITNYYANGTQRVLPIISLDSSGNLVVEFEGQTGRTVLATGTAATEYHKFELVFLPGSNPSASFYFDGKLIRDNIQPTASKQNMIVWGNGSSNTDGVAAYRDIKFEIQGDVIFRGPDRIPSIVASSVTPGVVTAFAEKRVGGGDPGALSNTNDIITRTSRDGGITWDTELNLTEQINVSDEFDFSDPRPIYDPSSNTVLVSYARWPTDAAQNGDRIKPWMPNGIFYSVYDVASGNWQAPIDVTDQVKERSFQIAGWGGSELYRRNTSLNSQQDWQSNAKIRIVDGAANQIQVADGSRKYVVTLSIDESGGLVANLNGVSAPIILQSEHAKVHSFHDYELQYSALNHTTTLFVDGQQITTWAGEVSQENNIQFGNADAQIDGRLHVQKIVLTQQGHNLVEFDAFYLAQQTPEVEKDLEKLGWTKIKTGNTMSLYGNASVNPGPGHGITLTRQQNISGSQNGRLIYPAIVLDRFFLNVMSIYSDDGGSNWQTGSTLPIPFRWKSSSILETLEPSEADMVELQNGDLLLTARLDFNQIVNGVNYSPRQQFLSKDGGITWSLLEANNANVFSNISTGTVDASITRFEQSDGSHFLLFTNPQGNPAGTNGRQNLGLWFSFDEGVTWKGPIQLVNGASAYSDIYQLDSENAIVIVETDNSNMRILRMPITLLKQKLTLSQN
# T1 sequence (P29768 whole entry): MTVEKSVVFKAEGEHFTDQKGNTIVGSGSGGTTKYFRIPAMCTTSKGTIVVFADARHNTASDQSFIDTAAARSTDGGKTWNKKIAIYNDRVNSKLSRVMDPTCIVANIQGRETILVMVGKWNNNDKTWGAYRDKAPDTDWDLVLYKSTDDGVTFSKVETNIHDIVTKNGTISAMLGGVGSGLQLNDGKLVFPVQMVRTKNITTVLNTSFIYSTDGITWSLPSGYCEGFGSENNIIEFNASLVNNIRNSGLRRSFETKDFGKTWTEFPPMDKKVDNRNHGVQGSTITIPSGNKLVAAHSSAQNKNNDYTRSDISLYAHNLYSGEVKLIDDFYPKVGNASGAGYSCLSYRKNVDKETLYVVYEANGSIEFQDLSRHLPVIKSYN
compound,measurement,setting,value
"O=C(O)C1=C[C@H](O)[C@@H](NC(=O)C(F)(F)F)[C@H]([C@H](O)[C@H](O)CO)O1 [FANA, 2-deoxy-2,3-dehydro-N-(trifluoroacetyl) neuraminic acid]",in vitro inhibition of influenza neuraminidase (in words),influenza neuraminidase,greater in vitro activity
"CC(=O)N[C@H]1[C@H]([C@H](O)[C@H](O)CO)OC(C(=O)O)=C[C@@H]1O [DANA, 2-deoxy-2,3-dehydro-N-acetylneuraminic acid]",in vitro inhibition of influenza neuraminidase (in words),influenza neuraminidase,effective in vitro inhibitor of NA; also recorded: among the most potent thus far described
"CC(=O)N[C@H]1[C@H](O)CN(C(Cc2ccccc2)C(=O)O)C[C@@H]1O (relative stereo) [±5b, trans-trans-5-N-(1'-carboxy-benzyl-ethyl)-3,5-dihydroxy-4-acetamidopiperidine]",Ki,[1],560 ± 30 µM
same,Ki,[2],1500 ± 200 µM
same,binding of ±5b relative to 5a,[3]; 5b vs 5a,~5 times more tightly
same,binding of ±5b relative to 5a (in words),[3]; 5b vs 5a,bound tighter than 5a
same,type of inhibition (double reciprocal plot),[3]; FIG. 4,competitive
same,binding relative to the p-nitrophenyl glycoside substrate,[3]; Ki vs substrate Km,approximately 2 × tighter
same,competitive inhibitor potency (in words),[3],sub-millimolar competitive inhibitors
same,Ki,bacterial sialidases,100 to 1000 µM
same,binding / inhibition (in words),[4],modest inhibitor
same,binding of ±5b relative to 5a (in words),[4]; 5b vs 5a,bound tighter than 5a
same,binding relative to the p-nitrophenyl glycoside substrate,[4]; Ki vs substrate Km,approximately 2 × tighter
same,binding / inhibition (in words),[4]; listed as 5b,bind weakly
same,binding/inhibition of 5a compared with 5b (in words),[5],inhibited to the same extent
same,binding/inhibition of 5a compared with 5b (in words),[5]; listed as 5b,no net energetic advantage over binding 5a exists; also recorded: no preference
same,affinity relative to substrate (in words),[5],slightly lower affinity than substrate
same,Ki,"[5]; pH 5.5, 30° C.",500 ± 70 µM
same,competitive inhibitor potency (in words),[5],sub-millimolar competitive inhibitors
"CC(=O)NC1C(O)CC(Oc2ccc([N+](=O)[O-])cc2)(C(=O)O)OC1C(O)C(O)CO [2-O-(p-nitrophenyl)-a-D-N-acetylneuraminic acid, reference compound]",Km,"[5]; pH 5.5, 30° C.",280 ± 30 µM
CC(=O)N[C@H]1[C@H]([C@H](O)[C@H](O)CO)OC(O)(C(=O)O)C[C@@H]1O (stereo partly drawn) [N-acetyl neuraminic acid],pKa,[6],~ 2.8
Vibrio cholerae sialidase (Vibrio cholerae O1 biovar El Tor str. N16961),Km,[7],2700 µM
CC(=O)N[C@H]1[C@H](O)CN(CC(=O)O)C[C@@H]1O [Compound 5a],Ki,[1],2500 ± 400 µM
same,Ki,[2],> 2000 µM
same,competitive inhibitor potency (in words),[3],sub-millimolar competitive inhibitors
same,Ki,bacterial sialidases,100 to 1000 µM
same,binding / inhibition (in words),[4],bind weakly
same,inhibition at concentrations up to / below 2 mM,"[4]; up to 2 mM 5a, pH 5.5, 30° C.",No inhibition; also recorded: did not show inhibition
same,binding/inhibition of 5a compared with 5b (in words),[5],inhibited to the same extent; also recorded: no preference
same,affinity relative to substrate (in words),[5],slightly lower affinity than substrate
same,Ki,"[5]; pH 5.5, 30° C.",400 ± 100 µM
same,competitive inhibitor potency (in words),[5],sub-millimolar competitive inhibitors
Salmonella typhimurium sialidase (Salmonella enterica subsp. enterica serovar Typhimurium str. LT2),Km,[7],1200 µM

# Source: patent US6020344A (priority 1998, dated 2000)
